Entries after “also recorded” stand apart in the source; their conditions may differ.
Experiments:
[1] = tested on: immunomagnetically-selected CD3+ cells; assay: Phototoxicity: photodepletion (PD) of CD3+ cells, real-time OCR; type: cell-based; settings: 5.0×10^−8 M 20 minutes, 30 minutes photosensitizer-free, 5 J/cm^2 light
Excerpt: (§1) Selective phototoxicity of Chalcogenorhodamine Photosensitizers. Based on the rapid extrusion kinetics and low potential for toxicity in resting cells, we selected four amide-containing half-julolidine analogues for further analysis (2-S—Cl, 2-Se—Cl, 4-S—Cl, and 4-Se—Cl). These photosensitizers are associated with high singlet oxygen quantum yields (Table I). As a result, very low concentrations of these agents are required for phototherapy. For all PD experiments, immunomagnetically-selected CD3^+ cells were suspended in a photosensitizer-rich media of 5.0×10^−8 M for 20 minutes followed by 30 minutes in a photosensitizer-free media. Cells were then exposed to 5 J/cm^2 of light followed by real-time measurement of OCR and ECAR. […] We next evaluated the effects of PD on cell survival. For these experiments, FACS analysis was performed 18 hours after PD. Cell survival was identified by failure to bind Annexin 5 and 7AAD, and percent survival was calculated as the difference in the absolute number of cells between PD and control (non-PD samples) samples.

[2] = Fluorescence quantum yield in MeOH; type: physicochemical; settings: quantum yield for fluorescence in MeOH
[3] = Quantum yield for generation of singlet oxygen, time-resolved 1O2 phosphorescence; type: physicochemical; settings: air-saturated MeOH, TMR-Se as reference
[4] = tested on: activated T cells (CD25+); assay: PD of activated T cells after SEB stimulation: bioenergetics and survival; type: cell-based; settings: 5×10^−8 M, 5 J/cm^2
Protocol: To evaluate the differential effects of PD on bioenergetics of activated and resting T cells, immunomagnetically-selected CD25^+ and CD25^− T cells were isolated (>95% purity) after SEB stimulation. PD was then performed, and bioenergetics were measured within 1 hour. The percent of basal OCR devoted to ATP production was determined by comparing basal OCR to baseline OCR (after oligomycin injection). […] Upon exposure to light, the higher concentration of 2-Se—Cl selectively disrupted OXPHOS in activated T cells. To determine whether the selective impedance of basal ATP production affected cell survival, we performed FACS analysis 18 hours after PD (FIG. 5C).

[5] = tested on: immunomagnetically-selected CD3+ cells; assay: Phototoxicity: cell survival by FACS (Annexin 5/7AAD) 18 hours after PD; type: cell-based; settings: 5.0×10^−8 M, 5 J/cm^2 light, FACS 18 hours after PD
Excerpt: as §1

HUT-78 cells = assay: Cellular uptake and extrusion of photosensitizer (flow cytometry MFI); type: cell-based; settings: ±SE; for Uptake MFI: 2.5 × 10^−7 M photosensitizer, 20 minutes exposure; for % Extrusion: percent change in MFI after 18 hour extrusion period, 2.5 × 10^−7 M
Protocol: Cellular Uptake and Extrusion of Chalcogenorhodamine Photosensitizers. […] Cellular uptake of the chalcogenorhodamine photosensitizers was measured after a 20 minute exposure to 2.5×10^−7 M photosensitizer in malignant T cells (HUT-78 cells, Table 2). Transmembrane movement of the photosensitizers in the secretory direction (basolateral to apical) was measured after an 18-h extrusion period. As described above, the Se-containing molecules fluoresced at a lower intensity relative to the S-containing molecules. […] Overall, the PF6^− salts were more slowly extruded from cells relative to the chloride salts of the amide, with a greater difference in the extrusion kinetics noted between the thiorhodamine PF6 salts compared to the selenorhodamine chloride salts.

resting T cells = assay: Dark toxicity: bioenergetics (O2 consumption rate) of resting T cells; settings: 5.0×10^−7 M
PBMCs = type: cell-based; settings: SEB 50 ng/mL 72 hours, CFSE
[6] = n-octanol / PBS pH 7.4, shake flask
physchem = settings: n-octanol/phosphate buffered saline, pH 7.4
MDCK-MDR1 cells = settings: cited from earlier work
P-gp = P-gp (Homo sapiens, UniProt P08183); settings: cited from earlier work
P-gp, sequence (P08183 whole entry): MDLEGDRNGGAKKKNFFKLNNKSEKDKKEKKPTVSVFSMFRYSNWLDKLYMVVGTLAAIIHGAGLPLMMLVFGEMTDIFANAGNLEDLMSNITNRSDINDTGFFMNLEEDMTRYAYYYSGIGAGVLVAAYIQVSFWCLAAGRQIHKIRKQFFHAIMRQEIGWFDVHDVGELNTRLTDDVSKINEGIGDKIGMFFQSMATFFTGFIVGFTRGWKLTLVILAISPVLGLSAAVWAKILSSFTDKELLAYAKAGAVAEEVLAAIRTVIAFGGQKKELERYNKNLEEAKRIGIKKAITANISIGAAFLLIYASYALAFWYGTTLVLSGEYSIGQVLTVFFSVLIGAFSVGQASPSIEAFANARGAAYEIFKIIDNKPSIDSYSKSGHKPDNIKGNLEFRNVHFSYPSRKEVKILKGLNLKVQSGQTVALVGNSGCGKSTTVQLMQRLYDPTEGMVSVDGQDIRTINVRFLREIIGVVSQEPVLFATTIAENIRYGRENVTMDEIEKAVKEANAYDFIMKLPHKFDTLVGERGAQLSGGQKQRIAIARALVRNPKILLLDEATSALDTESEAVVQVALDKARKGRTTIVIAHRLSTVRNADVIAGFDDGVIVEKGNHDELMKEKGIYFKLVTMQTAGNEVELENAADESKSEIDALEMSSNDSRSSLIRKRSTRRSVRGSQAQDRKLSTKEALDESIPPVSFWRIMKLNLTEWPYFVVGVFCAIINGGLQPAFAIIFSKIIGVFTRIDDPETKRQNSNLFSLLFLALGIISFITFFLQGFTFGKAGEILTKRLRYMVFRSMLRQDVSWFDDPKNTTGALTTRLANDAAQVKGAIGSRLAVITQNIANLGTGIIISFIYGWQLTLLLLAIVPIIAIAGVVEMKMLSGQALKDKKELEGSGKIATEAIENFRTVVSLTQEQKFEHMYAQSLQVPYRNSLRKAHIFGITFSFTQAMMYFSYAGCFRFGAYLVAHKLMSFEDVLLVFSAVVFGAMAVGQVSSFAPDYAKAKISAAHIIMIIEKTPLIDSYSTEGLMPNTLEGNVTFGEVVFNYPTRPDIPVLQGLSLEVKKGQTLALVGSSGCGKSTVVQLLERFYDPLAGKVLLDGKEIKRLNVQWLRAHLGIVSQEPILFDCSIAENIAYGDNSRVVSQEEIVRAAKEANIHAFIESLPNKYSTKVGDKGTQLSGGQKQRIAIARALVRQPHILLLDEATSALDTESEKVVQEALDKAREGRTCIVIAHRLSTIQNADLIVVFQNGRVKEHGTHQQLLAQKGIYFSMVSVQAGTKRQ

[7] = reference value; cited from earlier work
cytochrome c oxidase = settings: whole cells, irradiation; cited from earlier work

CN1CCC(C)(C)c2cc3c(-c4ccc(C(=O)N5CCCCC5)s4)c4ccc(=[N+](C)C)cc-4[se]c3cc21.[Cl-] [2-Se—Cl, N-methyl-N-(1,4,4-trimethyl-6-(5-(piperidine-1-carbonyl)thiophen-2-yl)-3,4-dihydro-1H-selenochromeno[3,2-g]quinolin-9(2H)-ylidene)methanaminium Chloride]
effect of PD on basal OCR [1]: did not significantly impede the basal OCR
ΦF, MeOH [2]: 0.009 ± 0.001
Φ(^1O2), MeOH [3]: 0.48±0.03
activated T cells eliminated from culture ([4]; FACS 18 hours after PD): Greater than 90%
aerobic glycolysis after PD ([4]; activated T cells): not affecting aerobic glycolysis of either population
OXPHOS associated ATP production after PD ([4]; activated T cells, within 1 hour): significantly impeded
cell death after PD [5]: minimal cell death
Uptake MFI (HUT-78 cells): 6536
% Extrusion (HUT-78 cells): 92.17 (±1.09) %
dark toxicity (resting T cells): not associated with any significant dark toxicity; also recorded: minimal toxicity
response to TSST-1 after PD (PBMCs; challenge with TSST-1, 6 days): a robust response was observed
proliferation in response to SEB after PD (PBMCs; rechallenge with SEB, 6 days): no proliferation occurred
aerobic glycolysis after PD (resting T cells (CD25−)): not affecting aerobic glycolysis of either population
cell death in resting T cell population (resting T cells (CD25−)): minimal to no cell death
log P [6]: 2.23 ± 0.04

CCN(CC)C(=O)c1ccc(-c2c3ccc(N(C)C)cc3[se+]c3c4c5c(cc23)CCCN5CCC4)s1.[Cl-] [8-Se—Cl, 12-(Dimethylamino)-2,3,6,7-tetrahydro-9-(5-(diethylcarbamoyl)-thiophen-2-yl)-1H,5H-selenoxantheno[2,3,4-ij]quinolizin-14-ium Chloride]
Uptake MFI (HUT-78 cells): 19365
% Extrusion (HUT-78 cells): 83.05 (±1.78) %
melting point: 150 to 152 °C
logP (physchem): 2.87 ± 0.01

CCN(CC)C(=O)c1ccc(-c2c3ccc(N(C)C)cc3[s+]c3c4c5c(cc23)CCCN5CCC4)s1.F[P-](F)(F)(F)(F)F [8-S—PF6]
Uptake MFI (HUT-78 cells): 128000
% Extrusion (HUT-78 cells): 79.40 (±1.56) %
log P [6]: 1.4
PBA (MDCK-MDR1 cells): 210 nm/s
effect on ATPase activity in P-gp (P-gp): stimulate ATPase activity

CN(C)c1ccc2c(-c3ccccc3)c3ccc(=[N+](C)C)cc-3[se]c2c1.[Cl-] [TMR-Se]
Φ(^1O2) of reference [7]: 0.87
cytochrome c oxidase activity in irradiated treated cells (cytochrome c oxidase): light fluence-dependent inhibition of cytochrome c oxidase activity

Reference: US20170096636A1, “METHODS AND COMPOUNDS FOR PHOTOTHERAPY WITH CHALCOGENORHODAMINE PHOTOSENSITIZERS” (Wake Forest University Health Sciences, priority 2014, published 2017)
